“Also recorded” adds a separate entry of the source.
Legend:
[1] = tested on: SOCS-3; test: Western blot of SOCS-3 in T cells; type: cell-based, human; details: T cells pretreated with CSPG-DS, relative to untreated T cells
Description: Western blot analysis of T-cell nuclear extracts. Purified T cells (5×10^6) were preincubated for 2 h with different concentrations of CSPG-DS. The cells were then replated at the same CSPG-DS concentration on 24-well plates pre-coated for 24 h with anti-CD3 mAb. The T cells were lysed in 10 mM HEPES, 1.5 mM MgCl2, 1 mM dithiothreitol, 1 mM PMSF, and 0.5% Nonidet P-40 (buffer A). The lysates were incubated on ice for 10 min and centrifuged at 2000 rpm for 10 min at 4° C. The supernatants (cytoplasmic extracts) were transferred and the pellets (nuclei) were suspended in buffer containing 30 mM HEPES, 450 mM NaCl, 25% glycerol, 0.5 mM EDTA, 6 mM dithiothreitol, 12 mM MgCl2 1 mM PMSF, 10 μg/ml leupeptin, 10 μg/ml pepstatin, and 1% phosphatase inhibitor cocktail (buffer B), and the suspension was incubated on ice for 30 min. The lysates were cleared by centrifugation (30 min, 14×10^3 rpm, 4° C.), and the resulting supernatants were analyzed for protein content. Sample buffer was added, the mixture was boiled, and the samples containing equal amounts of proteins were separated on 10% SDS-PAGE gel and transferred to nitrocellulose membranes. […]

[2] = tested on: delayed-type hypersensitivity response in mice; test: Delayed-type hypersensitivity (DTH) assay, ear swelling; type: in vivo; details: oxazalone-sensitized Balb/c mice, most efficient concentration of 1 μg/ml, relative to untreated
Description: Assay for delayed-type hypersensitivity. Groups of female inbred Balb/c mice (n=4 per group) were sensitized with 2% oxazalone (100 μl;) dissolved in acetone/olive oil (4:1 (vol/vol)) applied topically on the shaved abdominal skin. A delayed-type hypersensitivity (DTH) response was elicited 5 days later by challenge with 0.5% oxazalone in acetone/olive oil (10 μl applied topically to each side of one ear, and measured with an engineer's micrometer (Mitutoyo, Elk Grove Village, Ill., Tokyo, Japan)). Immediately before and 24 h after antigen challenge, the marked area was measured again.

[3] = tested on: retinal ganglion cells (RGCs); test: Experimental autoimmune uveitis (EAU), RGC survival; type: in vivo; details: R16-immunized Lewis rats, i.p. on days 3, 6, 9, 12 and 17; counted 3 weeks after immunization; mean±SD
Description: Induction of experimental autoimmune uveitis. To induce experimental autoimmune uveitis (EAU), Lewis rats were immunized with R16 (30 μg), a peptide derived from an ocular antigen IRBP emulsified in CFA containing 2.5 mg/ml M. tuberculosis. A total volume of 100 μl was injected s.c. into each rat at the root of the tail. Rats were then divided into three groups. On days 3, 6, 9, 12 and 17 after immunization the rats in the first group were injected i.p. with CSPG-DS (15 μg/rat), and rats in the second group were injected i.p. with methylprednisolone (MP. 30 mg/kg; Solu-Medrol, 125 mg/ml, Pharmacia & Upjohn, Puurs, Belgium). Rats in third group were left untreated.

[4] = tested on: PC12 cells; test: LPA-induced neurite retraction in differentiated PC12 cells; type: cell-based, rat
Description: PC12 cell line: Rat pheochromocytoma (PC12) cells were cultured in DMEM containing 8% horse serum and either 8% FCS (culture medium) or 1% FCS (differentiation medium), and antibiotics. For assays of neurite outgrowth, the cells were plated (10^5 cell/well) on 13-mm glass coverslips, precoated with collagen (500 μg/ml) in 24-well plates. Treatment of PC12 cells with lysophosphatidic acid (LPA). PC12 cells were placed and were differentiated for 3 days in the presence of 100 ng/ml NGF, in collagen-precoated culture dishes (Corning). […] The cells were then fixed with 4% paraformaldehyde (PFA) and analyzed by Nomarski microscopy. The longest neurite of each cell was measured and the results are expressed as their mean±SEM.

[5] = PC12 cells with LPA plus CSPG-DSs

CC(=O)N[C@H]1C(O)O[C@H](COS(=O)(=O)O)[C@H](O)[C@@H]1O[C@@H]1OC(C(=O)O)=C[C@H](O)[C@H]1O (stereo partly drawn) [CSPG-DS, 2-acetoamido-2-deoxy-3-O-(β-D-gluco-4-enepyranosyluronic acid)-6-O-sulfo-D-galactose]
SOCS-3 level [1]: increase | reduction in DTH response [2]: 40% | RGC loss relative to normal rats [3]: 24±9% | LPA-induced neurite collapse / retraction ([4]; NGF-differentiated PC12 cells, LPA 1 μg/ml 20 min together with CSPG-DSs (5 or 50 μg/ml)): dose-dependent reversal of the retraction process; also recorded: prevented | mean neurite length [4, 5]: beneficial effect | number of neurite-bearing cells [4, 5]: beneficial effect

Reference: patent US20070010484A1, “Method for treating or inhibiting the effects of injuries or diseases that result in neuronal degeneration and method for promoting neurogenesis” (YEDA RESEARCH AND DEVELOPMENT CO. LTD., priority 2003, published 2007)
